Data published in patent publication US11905244B2, “Chemical modulators of store-operated calcium channels and their therapeutic applications” (The Texas A&M University System, priority 2017, dated 2024).
Like-named read-outs stand apart in the source and are kept apart here.

Target: CRAC channel (Homo sapiens (Human), UniProt Q96D31)
Assay: GFP-NFAT translocation-based high-content screening (TG-stimulated HeLa cells stably expressing GFP-NFAT)
Assay type: cell-based
Details: for Inhibitory activity on CRAC channel in primary screening (NFAT nucleus-to-cytosol ratio): 200 μM compound
Source text: It is known that thapsigargin (TG) can induce the CRAC channel to open resulting in the calcium influx. The elevation of calcium in cytoplasm can activate the Ca^2+-calcineurin-NFAT pathway followed by NFAT translocation from the cytoplasm to the nucleus to regulate gene transcription. Therefore, the inventors built a GFP-NFAT translocation-based high-content screening method to evaluate the activity of compounds on CRAC channel. Briefly, a HeLa cell line stably expressing GFP-NFAT was established and used, and the images after chemical stimulation in the presence of TG were acquired using an IN Cell Analyzer 6000 confocal laser imaging system, and then the GFP fluorescent intensity ratio between cytoplasm and nucleus was analyzed to reflect the inhibitory activity of compound on CRAC channel.
Briefly, GFP-NFAT stable cells were cultured in Dulbecco's modified eagle's medium (DMEM) supplemented with 10% FBS in 5% carbon dioxide at 37° C. When it reached 90% confluency, a cell suspension with a concentration of […] was prepared, and an amount of 2000 cells per well (25 μL/well) was seeded in 384 well plate, putting it at the room temperature for 1 h to make sure the cells distribute evenly, then the cells were incubated overnight. First, primary screening of the selected compounds was conducted. A series of compound solutions with a concentration of 200 μM in MEDM medium were prepared in a 96 well plate and then added to a 384 well plate using a Beckman Coulter automatic drug adding system, in 4 duplicates, and incubated for 30 min at 37° C. SKF was selected as the positive control. Then, 1 μM TG and 1 mM Ca^2+ were added to 384-well plate using Beckman Coulter automatic drug adding system and incubated for 20 min. Subsequently, 384 well plate was gently washed with PBS twice, and the cells were fixed with 4% PFA (25 μl per well) for 10˜15 mins at room temperature, then washed with PBS gently, added 0.5% Triton X-100 (25 μL per well), and incubated for 5 mins aFt room temperature, stained with DAPI (1 μg/mL) for 5˜10 mins at room temperature, washed with PBS and added 30 μL PBS per well to image on confocal laser imaging system (objective lens: 10×, FITC and UV). Using Pipeline Plot software (NAFT translocation protocol), the intensity of green fluorescence was analyzed in nucleus and cytosol, calculate the ratio of nucleus:cytosol, normalize TG stimulate NFAT translocation as 1 and no TG adding as 0. Finally, the data was analyzed using GraphPad Prism 5 software.

[1] = Table 1, hits from virtual screening, unit inferred, read-out: IC50 Value
[2] = Table 2, unit inferred, read-out: IC50 of the compounds (inhibitory activity on CRAC channel)

CRAC channel, sequence (Q96D31 whole entry): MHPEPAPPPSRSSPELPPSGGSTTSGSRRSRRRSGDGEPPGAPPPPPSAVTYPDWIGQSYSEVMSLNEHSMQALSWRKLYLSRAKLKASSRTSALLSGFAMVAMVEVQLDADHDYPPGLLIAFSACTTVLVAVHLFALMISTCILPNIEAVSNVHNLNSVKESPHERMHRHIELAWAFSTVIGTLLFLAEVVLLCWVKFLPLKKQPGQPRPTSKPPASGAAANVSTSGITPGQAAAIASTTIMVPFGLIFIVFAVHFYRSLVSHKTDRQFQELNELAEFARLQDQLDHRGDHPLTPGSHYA

| IC50 [1] | IC50 [2] | SMILES | further results |
| --- | --- | --- | --- |
| 144 µM |  | CCN/C(=N\c1cccc(C(F)(F)F)c1)S[C@H]1CC(=O)N(c2ccc(C(=O)O)cc2)C1=O [Compound 03] | Inhibitory activity on CRAC channel in primary screening (NFAT nucleus-to-cytosol ratio): good activity; IC50 (GFP-NFAT translocation assay, read-out: IC50 on CRAC channel): ~100 µM |
| > 200 µM |  | Cc1cc(C)c(S(=O)(=O)Nc2ccc(O)c(C(=O)O)c2)c(C)c1 [Compound 06] |  |
| > 200 µM |  | Cc1ccc(Oc2ccc3c(c2)C(=O)N(CC(=O)O)C3=O)cc1 [Compound 07] |  |
| > 200 µM |  | O=C(CSCc1c(Cl)cccc1Cl)Nc1ccc(C(=O)O)cc1 [Compound 09] |  |
| > 200 µM |  | Cc1cc(=O)n2c3c(cc(S(=O)(=O)NCc4ccc(C(=O)O)cc4)cc13)CC2 [Compound 12] |  |
| > 200 µM |  | O=C(CCCc1nc(-c2ccccc2)no1)Nc1ccc(C(=O)O)cc1 [Compound 13] |  |
| > 200 µM |  | O=C(O)c1ccc(-c2ccc(CNC3CCCCC3)o2)cc1 [Compound 14] |  |
| > 200 µM |  | Cc1cccc(C)c1OCC(=O)NCc1ccc(C(=O)O)cc1 [Compound 17] |  |
| > 200 µM |  | O=C(O)c1ccc(NC(=O)C2CC(=O)N(c3ccc(Cl)cc3)C2)cc1 (stereo not shown) [Compound 18] |  |
| > 200 µM |  | CCOc1cc(Cl)c(S(=O)(=O)N2CCC(C(=O)O)CC2)cc1Cl [Compound 19] |  |
|  |  | CN1C(=O)C(Cc2ccc(O)c(Cl)c2)S/C1=N\c1cccc(C(=O)O)c1 (stereo not shown) [Compound 21] | IC50 (Table 1, compound marked as agonist, unit inferred, read-out: IC50 Value (agonist)): 60.3 µM |
| > 200 µM |  | CC(SC1N=C(c2ccccc2)C(c2ccccc2)=N1)C(=O)O (stereo not shown) [Compound 22] |  |
| > 200 µM |  | CCc1ccc(C=C(C(=O)O)C(=O)O)s1 [Compound 23] |  |
| > 200 µM |  | O=C(O)c1ccc(N2C(=O)c3cccc4cc(Br)cc(c34)C2=O)cc1 [Compound 24] |  |
| > 200 µM |  | C=CC[C@H]1N(c2ccccc2Cl)C[C@H]2[C@H](C(=O)O)[C@@H]3C=C[C@@]21O3 [Compound 25] |  |
| > 200 µM |  | CC(=C\C(=O)O)/C(=C/c1ccc(C)o1)C(=O)O [Compound 27] |  |
| > 200 µM |  | Nc1c(S(=O)(=O)O)ccc2c1C(=O)c1ccccc1C2=O [Compound 28] |  |
| > 200 µM |  | Cc1nn([C@H](CC(=O)O)C(=O)O)c(C)c1I [Compound 29] |  |
| > 200 µM |  | CCN/C(=N\c1ccc(Cl)c(Cl)c1)S[C@H]1CC(=O)N(c2ccc(C(=O)O)cc2)C1=O [Compound 30] |  |
| > 200 µM |  | Cc1cc2nc(S(=O)(=O)O)n(C)c2cc1C [Compound 31] |  |
| > 200 µM |  | Cc1c(C(=O)O)nnn1-c1ccc(Br)cc1 [Compound 32] |  |
| > 200 µM |  | O=C(O)c1ccc(C(=O)Nc2ccc(Br)cc2)c(C(=O)O)c1 [Compound 33] |  |
| > 200 µM |  | COc1ccc(-c2occ(C(=O)O)c2C(=O)O)cc1 [Compound 34] |  |
| > 200 µM |  | O=C(O)c1ccc2c(c1)[C@@H](Cl)Cc1ccccc1S2 [Compound 35] |  |

| IC50 [1] | IC50 [2] | SMILES | further results |
| --- | --- | --- | --- |
| > 200 µM |  | O=C1CCC(=O)N1c1ccc(S(=O)(=O)O)cc1 [Compound 36] |  |
| > 200 µM |  | O=C(O)CN1C(=O)[C@@H]2[C@@H](C1=O)[C@H]1C=C[C@@H]2C1 [Compound 37] |  |
| > 200 µM |  | Cc1nn(-c2ccc([N+](=O)[O-])cc2)c(Cl)c1S(=O)(=O)O [Compound 38] |  |
| > 200 µM |  | O=C(O)[C@H]1CC(=O)N(c2ccc(I)cc2)C1 [Compound 39] |  |
| > 200 µM |  | C#CCOc1ccc2ccccc2c1/C=C1\SC(Nc2cccc(C(=O)O)c2)=NC1=O [Compound 40] |  |
| > 200 µM |  | Cc1ccc(N2C(=O)c3ccc(C(=O)O)cc3C2=O)cc1Cl [Compound 42] |  |
| > 200 µM |  | Cc1cc(C)n(-c2ccc(S(=O)(=O)O)cc2)n1 [Compound 43] |  |
| > 200 µM |  | O=C(O)CCC(=O)Nc1ccc(OCCc2ccccc2)cc1 [Compound 44] |  |
| > 200 µM |  | Cc1ccc(S(=O)(=O)Nc2ccc(O)c(C(=O)O)c2)c(C)c1 [Compound 46] |  |
| > 200 µM |  | O=C(O)c1ccc(NC(=O)[C@H]2CC(=O)N(c3ccc(Cl)cc3)C2)cc1 [Compound 47] |  |
| > 200 µM |  | Nc1nc(C(=O)O)nn1C12CC3CC(CC(C3)C1)C2 [Compound 48] |  |
| > 200 µM |  | CN(C)c1ccc(CNCc2ccc(C(=O)O)cc2)cc1 [Compound 49] |  |
| > 200 µM |  | Cc1ccc(Oc2ccc(N3C[C@H](C(=O)O)CC3=O)cc2)cc1C [Compound 50] |  |
| > 200 µM |  | O=c1[nH]nnc2c1C1=C(CCCC1)C2 [Compound 51] |  |
|  | > 200 µM | O=C(O)c1ccc(N2C(=O)CC(S/C(=N\c3ccccc3)Nc3ccccc3)C2=O)cc1 (stereo not shown) [Compound 52] |  |
|  | > 200 µM | CN/C(=N/c1ccc(F)cc1)SC1CC(=O)N(c2ccc(C(=O)O)cc2)C1=O (stereo not shown) [Compound 54] |  |
|  | > 200 µM | CCN/C(=N/c1ccc(C(F)(F)F)cc1)SC1CC(=O)N(c2ccc(C(=O)O)cc2)C1=O (stereo not shown) [Compound 55] |  |
|  | > 200 µM | CN/C(=N/c1cc(Cl)ccc1Cl)SC1CC(=O)N(c2ccc(C(=O)O)cc2)C1=O (stereo not shown) [Compound 56] |  |
|  | > 200 µM | CCOC(=O)c1ccc(N2C(=O)CC(SCc3nnnn3-c3ccccc3)C2=O)cc1 (stereo not shown) [Compound 57] |  |
|  | > 200 µM | COC(=O)c1ccc(N2C(=O)CC(S/C(=N\c3ccccc3)NCc3ccc4c(c3)OCO4)C2=O)cc1 (stereo not shown) [Compound 58] |  |
|  | > 200 µM | CN/C(=N/c1ccc(I)cc1)SC1CC(=O)N(c2ccc(C(=O)O)cc2)C1=O (stereo not shown) [Compound 59] |  |
|  | > 200 µM | CN/C(=N/c1ccc(C)c(Cl)c1)SC1CC(=O)N(c2ccc(C(=O)O)cc2)C1=O (stereo not shown) [Compound 60] |  |
|  | > 200 µM | CCN/C(=N/c1ccccc1)SC1CC(=O)N(c2ccc(C(=O)O)cc2)C1=O (stereo not shown) [Compound 61] |  |
|  | 11.3 µM | CCN/C(=N/c1ccc(C)c(Cl)c1)SC1CC(=O)N(c2ccc(C(=O)OC)cc2)C1=O (stereo not shown) [Compound 62] | Inhibitory activity on CRAC channel in primary screening (NFAT nucleus-to-cytosol ratio): good inhibition |

| IC50 [1] | IC50 [2] | SMILES | further results |
| --- | --- | --- | --- |
|  | 74.4 µM | CN/C(=N/c1ccccc1OC)SC1CC(=O)N(c2ccc(C(=O)OC)cc2)C1=O (stereo not shown) [Compound 63] |  |
|  | 24.9 µM | CN/C(=N/c1ccccc1)SC1CC(=O)N(c2ccc(C(=O)OC)cc2)C1=O (stereo not shown) [Compound 64] |  |
|  | > 200 µM | COC(=O)c1ccc(N2C(=O)CC(S/C(=N\c3cccc(C(F)(F)F)c3)NCCc3ccc(OC)c(OC)c3)C2=O)cc1 (stereo not shown) [Compound 67] |  |
|  | > 200 µM | COC(=O)c1ccc(N2C(=O)CC(S/C(=N\c3ccc(Cl)cc3)NCc3ccccc3)C2=O)cc1 (stereo not shown) [Compound 68] |  |
|  | 108 µM | CN/C(=N/c1cc(Cl)cc(Cl)c1)SC1CC(=O)N(c2ccc(C(=O)O)cc2)C1=O (stereo not shown) [Compound 69] |  |
|  | > 200 µM | CN/C(=N/c1cccc(F)c1)SC1CC(=O)N(c2ccc(C(=O)O)cc2)C1=O (stereo not shown) [Compound 70] |  |
|  | > 200 µM | CN/C(=N/c1cccc(OC)c1)SC1CC(=O)N(c2ccc(C(=O)O)cc2)C1=O (stereo not shown) [Compound 71] |  |
|  | > 200 µM | CCN/C(=N/c1cccc(OC)c1)SC1CC(=O)N(c2ccc(C(=O)O)cc2)C1=O (stereo not shown) [Compound 72] |  |
|  | > 200 µM | CCN/C(=N/c1cccc(F)c1)SC1CC(=O)N(c2ccc(C(=O)O)cc2)C1=O (stereo not shown) [Compound 73] |  |
|  | > 200 µM | COc1ccc(CN/C(=N/c2ccc(Cl)cc2)SC2CC(=O)N(c3ccc(C(=O)O)cc3)C2=O)cc1 (stereo not shown) [Compound 74] |  |
|  | > 200 µM | CN/C(=N/c1ccccc1)SC1CC(=O)N(c2ccc(C(=O)OC)cc2)C1=O (stereo not shown) [Compound 75] |  |
|  | > 200 µM | CCN/C(=N\c1ccccc1)SC1CC(=O)N(c2ccc(C(=O)OC)cc2)C1=O (stereo not shown) [Compound 76] |  |
|  | > 200 µM | CCCN/C(=N\c1ccccc1)SC1CC(=O)N(c2ccc(C(=O)OC)cc2)C1=O (stereo not shown) [Compound 77] |  |
|  | > 200 µM | CCCCN/C(=N\c1ccccc1)SC1CC(=O)N(c2ccc(C(=O)OC)cc2)C1=O (stereo not shown) [Compound 78] |  |
|  | 11.7 µM | COC(=O)c1ccc(N2C(=O)CC(S/C(=N/c3ccccc3)NC(C)C)C2=O)cc1 (stereo not shown) [Compound 79] |  |
|  | > 200 µM | COC(=O)c1ccc(N2C(=O)CC(S/C(=N/c3ccccc3)NC3CC3)C2=O)cc1 (stereo not shown) [Compound 80] |  |
|  | > 200 µM | COC(=O)c1ccc(N2C(=O)CC(S/C(=N/c3ccccc3)NC(C)(C)C)C2=O)cc1 (stereo not shown) [Compound 81] |  |
|  | 22.4 µM | CCOC(=O)c1ccc(N2C(=O)CC(S/C(=N/c3ccccc3)NC)C2=O)cc1 (stereo not shown) [Compound 82] |  |
|  | > 200 µM | CCN/C(=N\c1ccccc1)SC1CC(=O)N(c2ccc(C(=O)OCC)cc2)C1=O (stereo not shown) [Compound 83] |  |
|  | > 200 µM | CCCN/C(=N\c1ccccc1)SC1CC(=O)N(c2ccc(C(=O)OCC)cc2)C1=O (stereo not shown) [Compound 84] |  |
|  | > 200 µM | CCCCN/C(=N\c1ccccc1)SC1CC(=O)N(c2ccc(C(=O)OCC)cc2)C1=O (stereo not shown) [Compound 85] |  |
|  | 6.34 µM | CCOC(=O)c1ccc(N2C(=O)CC(S/C(=N/c3ccccc3)NC(C)C)C2=O)cc1 (stereo not shown) [Compound 86] |  |
